According to publication PMC4501006, “Preliminary Characterization and In Vivo Studies of Structurally Identical ^18F- and ^125I-Labeled Benzyloxybenzenes for PET/SPECT Imaging of β-Amyloid Plaques” (Scientific Reports, 2015):

Experiment: In vivo biodistribution in normal ICR mice
Conditions: i.v.
Experimental: Histograms of brain and intestine uptake were presented in Fig. 6 for comparison, while detailed data concerning the in vivo biodistribution in normal ICR mice were collected in Table S3 in Supplementary information. […] [^125I]7a and [^125I]12a were rapidly cleared from the normal brain, with only small amounts of radioactivity remaining at 60 min post-injection (0.55% ID/g for [^125I]7a and 0.37% ID/g for [^125I]12a). […] In addition, no significant deiodination was observed (less than 0.5% ID in the thyroid at 60 min).
As the specific activity of ^18F-labeled ligands (about 60 GBq/μmol) was slightly lower than that of corresponding no-carrier-added ^125I-labeled ligands (81 GBq/μmol), the impact of specific activity on pharmacokinetics was studied. In vivo biodistribution of radioactivity after injection of carrier-added [^125I]7a with equal specific activity to corresponding [^18F]7a (60 GBq/μmol) was conducted in normal ICR mice through the same procedure.
A structural model of an Aβ fiber (PDB ID: 2LMO) derived from solid state NMR was downloaded from the RCSB Protein Data Bank (www.rcsb.org/pdb). Geometric optimization was performed using Gaussian 09 at the B3LYP/6–31 G and 3-21G levels in the water phase. Molecular docking was performed using AutoDock4.0, and the docking results were graphed with VMD 1.9.1 software. SYBYL-X 1.1 software was used to predict the binding affinities with previously constructed 3D-QSAR models. All reagents for chemical synthesis were used as purchased without further purification. [^125I]NaI was purchased from PerkinElmer and ^18F^– was kindly provided by the Chinese PLA General Hospital. ^1H and ^13C NMR spectra were recorded on a Bruker Avance III NMR spectrometer (400 MHz for ^1H; 101 MHz for ^13C) in CDCl3 or DMSO-d6 solutions at room temperature. Mass spectra were acquired with a GCT CA127 Micronass UK instrument. X-ray crystallographic data of compound 12a were collected on a Bruker Smart APEX II diffractometer (Bruker Co., Germany) and deposited at the Cambridge Crystallographic Data Centre as supplementary publication (no. CCDC 1063679). HPLC analysis was performed on a Shimadzu SCL-20 AVP equipped with a Bioscan Flow Count 3200 NaI/PMT γ-radiation scintillation detector and a SPD-20A UV detector, λ = 254 nm. A Venusil MP C18 reverse phase column (Agela Technologies, 5 μm, 4.6 × 250 mm) was used for separations and purity determinations with a binary gradient system (acetonitrile: water = 80%: 20%) at a 1.0 mL/min flow rate. Fluorescent observation was performed on the Axio Observer Z1 inverted fluorescence microscope (Zeiss, Germany) equipped with a DAPI filter set (excitation, 405 nm). Post-mortem brain sections from an autopsy-confirmed AD subject and a control subject were acquired from the Chinese Brain Bank. Transgenic mice (APPswe/PSEN1, male) and wild-type mice (C57BL6, male) were purchased from the Institute of Laboratory Animal Science, Chinese Academy of Medical Sciences. Normal ICR mice (20–22 g, male) were used for in vivo biodistribution, dynamic PET/CT and SPECT/CT scans, and biostability experiments. All experiments on mice were performed in accordance with the guidelines approved by the animal care committee of Beijing Normal University and Xiamen University.

Structure (SMILES): [18F]CCOc1ccc(OCc2ccc(I)cc2)cc1 [[^18F]7a]
- brain2 min/brain60 min ratio: 1.8
- Biodistribution of radioactivity, blood (2 min): 5.99 ± 0.16 % injected dose per gram
- Biodistribution of radioactivity, bone (2 min): 2.53 ± 0.43 % injected dose per gram
- Biodistribution of radioactivity, brain (2 min): > 5 % injected dose per gram
- Biodistribution of radioactivity, heart (2 min): 9.32 ± 0.27 % injected dose per gram
- Biodistribution of radioactivity, intestine (2 min): 6.38 ± 1.04 % injected dose per organ
- Biodistribution of radioactivity, kidney (2 min): 12.70 ± 0.69 % injected dose per gram
- Biodistribution of radioactivity, liver (2 min): 17.83 ± 1.41 % injected dose per gram
- Biodistribution of radioactivity, lung (2 min): 9.34 ± 0.45 % injected dose per gram
- Biodistribution of radioactivity, muscle (2 min): 5.03 ± 0.63 % injected dose per gram
- Biodistribution of radioactivity, pancreas (2 min): 8.18 ± 0.79 % injected dose per gram
- Biodistribution of radioactivity, spleen (2 min): 5.92 ± 1.30 % injected dose per gram
- Biodistribution of radioactivity, stomach (2 min): 1.55 ± 0.11 % injected dose per organ
- Biodistribution of radioactivity, brain (2 min, listed as [18F]7a): 6.14 ± 0.52 % injected dose per gram
- Biodistribution of radioactivity, blood (10 min): 4.29 ± 0.14 % injected dose per gram
- Biodistribution of radioactivity, bone (10 min): 1.55 ± 0.50 % injected dose per gram
- Biodistribution of radioactivity, brain (10 min): 4.78 ± 0.11 % injected dose per gram
- Biodistribution of radioactivity, heart (10 min): 4.03 ± 0.34 % injected dose per gram
- Biodistribution of radioactivity, intestine (10 min): 5.38 ± 0.33 % injected dose per organ
- Biodistribution of radioactivity, kidney (10 min): 7.69 ± 1.15 % injected dose per gram
- Biodistribution of radioactivity, liver (10 min): 6.07 ± 0.27 % injected dose per gram
- Biodistribution of radioactivity, lung (10 min): 4.63 ± 0.35 % injected dose per gram
- Biodistribution of radioactivity, muscle (10 min): 3.46 ± 0.19 % injected dose per gram
- Biodistribution of radioactivity, pancreas (10 min): 3.96 ± 0.15 % injected dose per gram
- Biodistribution of radioactivity, spleen (10 min): 3.33 ± 0.20 % injected dose per gram
- Biodistribution of radioactivity, stomach (10 min): 1.24 ± 0.13 % injected dose per organ
- Biodistribution of radioactivity, blood (30 min): 4.36 ± 0.20 % injected dose per gram
- Biodistribution of radioactivity, bone (30 min): 2.70 ± 0.48 % injected dose per gram
- Biodistribution of radioactivity, brain (30 min): 3.85 ± 0.24 % injected dose per gram
- Biodistribution of radioactivity, heart (30 min): 4.20 ± 0.52 % injected dose per gram
- Biodistribution of radioactivity, intestine (30 min): 5.95 ± 0.89 % injected dose per organ
- Biodistribution of radioactivity, kidney (30 min): 6.12 ± 0.79 % injected dose per gram
- Biodistribution of radioactivity, liver (30 min): 4.31 ± 0.32 % injected dose per gram
- Biodistribution of radioactivity, lung (30 min): 4.21 ± 0.18 % injected dose per gram
- Biodistribution of radioactivity, muscle (30 min): 3.82 ± 0.40 % injected dose per gram
- Biodistribution of radioactivity, pancreas (30 min): 3.62 ± 0.30 % injected dose per gram
- Biodistribution of radioactivity, spleen (30 min): 3.38 ± 0.23 % injected dose per gram
- Biodistribution of radioactivity, stomach (30 min): 1.82 ± 0.48 % injected dose per organ
- Biodistribution of radioactivity, blood (60 min): 4.97 ± 0.12 % injected dose per gram
- Biodistribution of radioactivity, bone (60 min): 4.16 ± 0.59 % injected dose per gram
- Biodistribution of radioactivity, brain (60 min): 3.48 % injected dose per gram
- Biodistribution of radioactivity, heart (60 min): 4.26 ± 0.13 % injected dose per gram
- Biodistribution of radioactivity, intestine (60 min): 8.13 ± 1.01 % injected dose per organ
- Biodistribution of radioactivity, kidney (60 min): 4.77 ± 0.52 % injected dose per gram
- Biodistribution of radioactivity, liver (60 min): 3.84 ± 0.21 % injected dose per gram
- Biodistribution of radioactivity, lung (60 min): 4.32 ± 0.17 % injected dose per gram
- Biodistribution of radioactivity, muscle (60 min): 4.31 ± 0.38 % injected dose per gram
- Biodistribution of radioactivity, pancreas (60 min): 2.89 ± 0.37 % injected dose per gram
- Biodistribution of radioactivity, spleen (60 min): 3.28 ± 0.29 % injected dose per gram
- Biodistribution of radioactivity, stomach (60 min): 1.58 ± 0.18 % injected dose per organ
- Biodistribution of radioactivity, brain (60 min, listed as [18F]7a): 3.48 ± 0.12 % injected dose per gram

Structure (SMILES): [18F]CCOc1ccc(COc2ccc(I)cc2)cc1 [[^18F]12a]
- brain2 min/brain60 min ratio: 1.6
- Biodistribution of radioactivity, blood (2 min): 7.53 ± 0.80 % injected dose per gram
- Biodistribution of radioactivity, bone (2 min): 2.55 ± 0.29 % injected dose per gram
- Biodistribution of radioactivity, brain (2 min): > 5 % injected dose per gram
- Biodistribution of radioactivity, heart (2 min): 9.11 ± 1.07 % injected dose per gram
- Biodistribution of radioactivity, intestine (2 min): 7.72 ± 0.54 % injected dose per organ
- Biodistribution of radioactivity, kidney (2 min): 11.63 ± 0.86 % injected dose per gram
- Biodistribution of radioactivity, liver (2 min): 13.20 ± 1.45 % injected dose per gram
- Biodistribution of radioactivity, lung (2 min): 9.17 ± 1.10 % injected dose per gram
- Biodistribution of radioactivity, muscle (2 min): 5.38 ± 0.47 % injected dose per gram
- Biodistribution of radioactivity, pancreas (2 min): 8.75 ± 0.33 % injected dose per gram
- Biodistribution of radioactivity, spleen (2 min): 4.98 ± 0.32 % injected dose per gram
- Biodistribution of radioactivity, stomach (2 min): 1.70 ± 0.08 % injected dose per organ
- Biodistribution of radioactivity, brain (2 min, listed as [18F]12a): 6.76 ± 0.41 % injected dose per gram
- Biodistribution of radioactivity, blood (10 min): 4.55 ± 0.36 % injected dose per gram
- Biodistribution of radioactivity, bone (10 min): 2.13 ± 0.27 % injected dose per gram
- Biodistribution of radioactivity, brain (10 min): 5.73 ± 0.44 % injected dose per gram
- Biodistribution of radioactivity, heart (10 min): 4.40 ± 0.36 % injected dose per gram
- Biodistribution of radioactivity, intestine (10 min): 6.94 ± 0.53 % injected dose per organ
- Biodistribution of radioactivity, kidney (10 min): 6.19 ± 0.46 % injected dose per gram
- Biodistribution of radioactivity, liver (10 min): 4.74 ± 0.36 % injected dose per gram
- Biodistribution of radioactivity, lung (10 min): 4.91 ± 0.60 % injected dose per gram
- Biodistribution of radioactivity, muscle (10 min): 3.92 ± 0.41 % injected dose per gram
- Biodistribution of radioactivity, pancreas (10 min): 3.96 ± 0.27 % injected dose per gram
- Biodistribution of radioactivity, spleen (10 min): 3.55 ± 0.26 % injected dose per gram
- Biodistribution of radioactivity, stomach (10 min): 1.54 ± 0.32 % injected dose per organ
- Biodistribution of radioactivity, blood (30 min): 5.91 ± 0.33 % injected dose per gram
- Biodistribution of radioactivity, bone (30 min): 3.31 ± 0.21 % injected dose per gram
- Biodistribution of radioactivity, brain (30 min): 5.02 ± 0.32 % injected dose per gram
- Biodistribution of radioactivity, heart (30 min): 5.41 ± 0.36 % injected dose per gram
- Biodistribution of radioactivity, intestine (30 min): 8.09 ± 0.43 % injected dose per organ
- Biodistribution of radioactivity, kidney (30 min): 6.19 ± 0.37 % injected dose per gram
- Biodistribution of radioactivity, liver (30 min): 4.84 ± 0.28 % injected dose per gram
- Biodistribution of radioactivity, lung (30 min): 5.34 ± 0.31 % injected dose per gram
- Biodistribution of radioactivity, muscle (30 min): 4.71 ± 0.50 % injected dose per gram
- Biodistribution of radioactivity, pancreas (30 min): 4.55 ± 0.36 % injected dose per gram
- Biodistribution of radioactivity, spleen (30 min): 4.29 ± 0.36 % injected dose per gram
- Biodistribution of radioactivity, stomach (30 min): 2.09 ± 0.32 % injected dose per organ
- Biodistribution of radioactivity, blood (60 min): 5.87 ± 0.19 % injected dose per gram
- Biodistribution of radioactivity, bone (60 min): 3.51 ± 0.78 % injected dose per gram
- Biodistribution of radioactivity, brain (60 min): 4.26 % injected dose per gram
- Biodistribution of radioactivity, heart (60 min): 4.76 ± 0.40 % injected dose per gram
- Biodistribution of radioactivity, intestine (60 min): 8.50 ± 1.23 % injected dose per organ
- Biodistribution of radioactivity, kidney (60 min): 5.48 ± 0.41 % injected dose per gram
- Biodistribution of radioactivity, liver (60 min): 4.64 ± 0.21 % injected dose per gram
- Biodistribution of radioactivity, lung (60 min): 5.19 ± 0.36 % injected dose per gram
- Biodistribution of radioactivity, muscle (60 min): 4.51 ± 0.49 % injected dose per gram
- Biodistribution of radioactivity, pancreas (60 min): 3.95 ± 0.25 % injected dose per gram
- Biodistribution of radioactivity, spleen (60 min): 3.87 ± 0.34 % injected dose per gram
- Biodistribution of radioactivity, stomach (60 min): 1.70 ± 0.29 % injected dose per organ
- Biodistribution of radioactivity, brain (60 min, listed as [18F]12a): 4.26 ± 0.18 % injected dose per gram
